Data from ChEMBL document CHEMBL1156391, “Screening of triterpenoids isolated from Phyllanthus flexuosus for DNA topoisomerase inhibitory activity” (J Nat Prod, 2001).
The source made the active and inactive calls. No cut-off for these calls is given here.

Key:
[1] = molecular target: T1, DNA topoisomerase 1 (Homo sapiens) (UniProt P11387); assay: Inhibition of human topoisomerase 1 assessed as relaxation of supercoiled pBR322 DNA up to 200 uM by agarose gel electrophoresis
T1 sequence (whole entry): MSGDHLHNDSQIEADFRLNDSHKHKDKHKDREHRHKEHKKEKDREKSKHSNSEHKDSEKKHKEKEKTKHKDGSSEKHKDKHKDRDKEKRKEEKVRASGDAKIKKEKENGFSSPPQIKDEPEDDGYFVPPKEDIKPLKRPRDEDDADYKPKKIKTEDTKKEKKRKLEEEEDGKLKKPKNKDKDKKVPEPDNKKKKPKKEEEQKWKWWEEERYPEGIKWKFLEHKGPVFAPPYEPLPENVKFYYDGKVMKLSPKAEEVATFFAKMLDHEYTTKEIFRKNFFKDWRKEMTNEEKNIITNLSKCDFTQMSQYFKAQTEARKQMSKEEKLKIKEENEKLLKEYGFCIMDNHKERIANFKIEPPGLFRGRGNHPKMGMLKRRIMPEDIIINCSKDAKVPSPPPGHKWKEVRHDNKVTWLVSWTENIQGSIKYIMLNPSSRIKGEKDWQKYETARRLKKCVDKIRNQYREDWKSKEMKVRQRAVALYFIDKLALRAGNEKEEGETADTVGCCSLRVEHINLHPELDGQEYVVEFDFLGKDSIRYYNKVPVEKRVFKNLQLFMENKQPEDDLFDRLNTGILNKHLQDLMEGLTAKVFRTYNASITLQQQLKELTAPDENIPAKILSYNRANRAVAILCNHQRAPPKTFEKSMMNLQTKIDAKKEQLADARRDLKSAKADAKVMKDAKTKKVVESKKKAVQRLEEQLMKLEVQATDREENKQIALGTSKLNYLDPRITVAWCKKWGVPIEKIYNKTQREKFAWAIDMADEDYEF

[2] = molecular target: T2, DNA topoisomerase 2-alpha (Homo sapiens, UniProt P11388); assay: Inhibition of human 1 unit topoisomerase 2alpha catalytic activity assessed as relaxation of 198 ng supercoiled pBR322 DNA by agarose gel electrophoresis
[3] = molecular target: T2, DNA topoisomerase 2-alpha; assay: Inhibition of 1 unit human topoisomerase 2alpha catalytic activity assessed as relaxation of 198 ng supercoiled pBR322 DNA at 100 uM by agarose gel electrophoresis
[4] = molecular target: T2, DNA topoisomerase 2-alpha; assay: Inhibition of 1 unit human topoisomerase 2alpha catalytic activity assessed as relaxation of 198 ng supercoiled pBR322 DNA at 200 uM by agarose gel electrophoresis

T2 sequence (P11388 whole entry): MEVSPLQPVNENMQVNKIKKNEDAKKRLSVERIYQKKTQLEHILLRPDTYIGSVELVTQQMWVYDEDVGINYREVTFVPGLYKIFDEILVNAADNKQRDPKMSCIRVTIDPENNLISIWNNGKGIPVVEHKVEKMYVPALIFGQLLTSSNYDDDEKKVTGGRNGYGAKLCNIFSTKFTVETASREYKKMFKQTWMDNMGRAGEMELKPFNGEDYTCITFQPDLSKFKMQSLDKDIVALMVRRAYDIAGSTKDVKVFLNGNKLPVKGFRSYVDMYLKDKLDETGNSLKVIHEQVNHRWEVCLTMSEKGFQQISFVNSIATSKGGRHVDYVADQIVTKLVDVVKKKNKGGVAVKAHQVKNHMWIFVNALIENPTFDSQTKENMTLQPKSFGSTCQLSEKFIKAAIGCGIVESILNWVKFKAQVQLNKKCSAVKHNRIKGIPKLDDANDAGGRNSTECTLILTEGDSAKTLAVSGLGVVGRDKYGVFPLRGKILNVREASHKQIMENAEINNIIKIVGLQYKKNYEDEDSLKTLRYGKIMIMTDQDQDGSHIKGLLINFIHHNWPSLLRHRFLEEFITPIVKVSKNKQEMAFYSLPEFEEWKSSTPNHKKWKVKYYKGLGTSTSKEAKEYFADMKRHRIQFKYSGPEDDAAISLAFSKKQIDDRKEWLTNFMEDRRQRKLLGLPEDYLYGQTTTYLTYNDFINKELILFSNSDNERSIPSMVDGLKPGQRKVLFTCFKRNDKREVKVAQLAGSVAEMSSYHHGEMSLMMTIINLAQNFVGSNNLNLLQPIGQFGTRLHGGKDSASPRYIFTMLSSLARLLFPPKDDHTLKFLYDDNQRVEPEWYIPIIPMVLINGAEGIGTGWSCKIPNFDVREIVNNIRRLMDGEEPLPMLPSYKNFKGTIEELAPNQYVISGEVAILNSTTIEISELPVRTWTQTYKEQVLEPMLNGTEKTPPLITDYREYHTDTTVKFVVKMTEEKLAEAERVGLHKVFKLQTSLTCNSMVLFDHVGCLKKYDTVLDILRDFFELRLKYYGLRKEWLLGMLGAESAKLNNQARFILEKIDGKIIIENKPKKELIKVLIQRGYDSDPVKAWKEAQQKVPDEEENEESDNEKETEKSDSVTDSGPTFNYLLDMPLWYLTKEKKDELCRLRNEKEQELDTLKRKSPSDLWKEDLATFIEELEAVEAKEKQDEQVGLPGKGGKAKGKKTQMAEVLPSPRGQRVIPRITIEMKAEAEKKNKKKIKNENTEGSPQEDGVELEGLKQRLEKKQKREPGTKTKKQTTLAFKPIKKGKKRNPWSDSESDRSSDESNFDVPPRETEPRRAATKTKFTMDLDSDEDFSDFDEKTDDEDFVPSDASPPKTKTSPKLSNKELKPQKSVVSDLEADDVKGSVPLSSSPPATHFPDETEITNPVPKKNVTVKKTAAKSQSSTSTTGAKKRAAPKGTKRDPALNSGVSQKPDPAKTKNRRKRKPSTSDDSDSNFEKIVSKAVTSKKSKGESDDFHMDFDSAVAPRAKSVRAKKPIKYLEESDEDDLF

| Compound | Activity [1] | Activity [2] | IC50 [2] [µM] | Activity [3] | inhibition [4] |
| --- | --- | --- | --- | --- | --- |
| CC1(C)CC[C@]2(C)C[C@H](O)[C@]3(C)C(=CC[C@@H]4[C@@]5(C)CC[C@H](O)C(C)(C)[C@@H]5CC[C@]43C)[C@@H]2C1 | inactive | Dose-dependent effect | 17.5 | Active |  |
| CC1(C)CC[C@]2(C)C[C@H](O)[C@]3(C)C(=CC[C@@H]4[C@@]5(C)CC[C@H](O)[C@](C)(CO)[C@@H]5CC[C@]43C)[C@@H]2C1 | inactive | Dose-dependent effect | 38.7 | Active |  |
| C=C(C)[C@@H]1CC[C@]2(CO)CC[C@]3(C)[C@H](CC[C@@H]4[C@@]5(C)CC[C@H](O)C(C)(C)[C@@H]5CC[C@]43C)[C@@H]12 [BETULIN] | inactive | Dose-dependent effect | 38.6 | Active |  |
| C=C(C)[C@@H]1CC[C@]2(C)CC[C@]3(C)[C@H](CC[C@@H]4[C@@]5(C)CC[C@H](O)C(C)(C)[C@@H]5CC[C@]43C)[C@@H]12 [LUPEOL] | inactive | Dose-dependent effect | 10.4 | Active |  |
| CC1(C)CC[C@]2(C)CC[C@]3(C)C(=CC[C@@H]4[C@@]5(C)CC[C@H](O)[C@](C)(CO)[C@@H]5CC[C@]43C)[C@@H]2C1 | inactive |  | > 200 |  | 33% |
| C=C(C)[C@@H]1CC[C@]2(C)CC[C@]3(C)[C@H](CC[C@@H]4[C@@]5(C)CC[C@H](O)[C@](C)(CO)[C@@H]5CC[C@]43C)[C@H]12 | inactive |  |  |  | inactive |
